This is an account of results in paper PMC6934184, “Selective DNA-PKcs inhibition extends the therapeutic index of localized radiotherapy and chemotherapy” (The Journal of Clinical Investigation, 2019).

This experiment concerns the target T1, MAP4K3 (GLK) (Homo sapiens, UniProt Q8IVH8).
T1 construct: purchased Thermo Fisher Scientific (Life Technologies) SelectScreen
Nature of the experiment: SelectScreen LanthaScreen. Format: binding. The following applies: 1 µM. In short, it runs like this:
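NU5455 was profiled across the SelectScreen Broad panel of kinase activity and binding assays. Z'LYTE reactions such as CSF1R ran at apparent Km ATP, while the Adapta CAMK1 assay used ATP listed as 10. Values are given as percent.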

T1 sequence (Q8IVH8 whole entry): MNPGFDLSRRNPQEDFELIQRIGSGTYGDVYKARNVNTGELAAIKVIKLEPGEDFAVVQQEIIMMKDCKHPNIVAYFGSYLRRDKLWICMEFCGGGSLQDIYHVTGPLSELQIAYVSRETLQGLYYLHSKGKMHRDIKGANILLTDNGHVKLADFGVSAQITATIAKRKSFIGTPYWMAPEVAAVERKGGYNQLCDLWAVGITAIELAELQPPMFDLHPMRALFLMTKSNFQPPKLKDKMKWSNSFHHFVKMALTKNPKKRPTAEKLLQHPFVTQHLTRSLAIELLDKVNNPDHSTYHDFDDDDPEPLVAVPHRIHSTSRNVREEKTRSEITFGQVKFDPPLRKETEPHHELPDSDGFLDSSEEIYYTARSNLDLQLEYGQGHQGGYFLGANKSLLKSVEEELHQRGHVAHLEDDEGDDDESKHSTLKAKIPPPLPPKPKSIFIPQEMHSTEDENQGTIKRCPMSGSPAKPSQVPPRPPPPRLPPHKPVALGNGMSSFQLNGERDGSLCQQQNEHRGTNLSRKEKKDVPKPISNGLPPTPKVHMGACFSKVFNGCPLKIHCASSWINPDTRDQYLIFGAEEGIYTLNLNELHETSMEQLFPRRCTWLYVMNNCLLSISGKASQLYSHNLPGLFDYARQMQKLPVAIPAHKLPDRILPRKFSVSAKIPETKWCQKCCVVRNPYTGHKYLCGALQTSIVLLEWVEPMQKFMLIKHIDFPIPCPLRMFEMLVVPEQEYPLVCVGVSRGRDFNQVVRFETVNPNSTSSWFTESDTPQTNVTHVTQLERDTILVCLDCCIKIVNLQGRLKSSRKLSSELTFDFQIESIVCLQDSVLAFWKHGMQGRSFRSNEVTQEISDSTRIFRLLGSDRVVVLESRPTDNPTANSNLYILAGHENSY

For the molecule `CN(C(=O)CN1CCOCC1)c1ccc2sc3c(-c4cccc5c(=O)cc(N6CC7CCC(C6)O7)oc45)cccc3c2c1` [NU5455], the “% displacement” value is -2.1%.
